In general, EC50 refers to the concentration needed to bring the measured effect to its halfway point.

The values that follow come from BindingDB's records for doi:10.7270/Q28G8J4C (Broad Institute, 2009).

The assay addresses T1, POsterior Segregation (Caenorhabditis elegans, UniProt G5EF15).
T1 sequence (G5EF15 whole entry): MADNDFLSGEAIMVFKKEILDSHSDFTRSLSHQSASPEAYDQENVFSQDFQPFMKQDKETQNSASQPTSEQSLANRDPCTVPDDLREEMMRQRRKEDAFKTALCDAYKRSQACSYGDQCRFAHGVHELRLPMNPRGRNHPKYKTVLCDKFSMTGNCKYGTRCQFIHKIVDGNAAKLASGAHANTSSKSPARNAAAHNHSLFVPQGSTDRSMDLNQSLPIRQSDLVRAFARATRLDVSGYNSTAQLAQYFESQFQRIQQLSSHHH
Put plainly: disruptors of C. elegans POS-1 RNA interaction – biochemical, fluorescence polarization, dose response (AID 1964).

`COc1ccc(C2C(C(=O)c3cccs3)C(=O)C(=O)N2c2nncs2)cc1` (centres undefined) showed an EC50 of 0.549 µM.

Compound `O=C(O)c1ccc(S(=O)(=O)N=C2C=C(Nc3ccccc3F)C(=O)c3ccccc32)cc1` came in with an EC50 of 117 µM. Take `COc1ccc(C2C(C(C)=O)=C(C)N=c3sc(=Cc4cc(C)n(C)c4C)c(=O)n32)c(OC)c1` (centres undefined): the EC50 was 10.9 µM.

Compound `N#CC1C(=N)OC2=C(C(=O)CC(c3ccccc3)C2)C1c1ccc2c(c1)OCO2` (centres undefined) yielded an EC50 of more than 300 µM.

As to `Clc1ccc(C2=Nc3ncnn3C(c3ccco3)C2)cc1` (centres undefined), the EC50 stood at 24.7 µM.

In turn, `Brc1ccc(C2=Nc3ncnn3C(c3ccco3)C2)cc1` (centres undefined) registered an EC50 of more than 300 µM. The compound `CS(=O)(=O)Nc1nc2n(n1)C(c1ccccc1)CC(c1ccc(Br)cc1)=N2` (centres undefined) came in with an EC50 of more than 300 µM.

In turn, `COc1ccccc1-n1c(O)c2n(-c3ccc(C)cc3)[nH]c(C(=O)c3ccccc3)c-2c1=O` returned an EC50 of 13.7 µM. The figure for `COc1cc(C2c3c(-c4cccnc4)n[nH]c3OC(=N)C2C#N)cc(Br)c1O` (centres undefined) is more than 300 µM.

`O=C1N=c2ccccc2=C1NNc1ccc(F)cc1` yielded an EC50 of more than 300 µM. The figure for `c1ccc(CN=Nc2nc3ccccc3[nH]2)nc1` is 72.9 µM.

`Cc1c(C(=O)NN=Cc2ccco2)[nH][nH]c1=O` registered an EC50 of more than 300 µM. As to `COC1=CC([N+](=O)[O-])=CC(/C=N/NC(=O)CC#N)C1=O` (centres undefined), the EC50 was more than 300 µM. The figure for `Cc1ccc(Cl)c2c1NC(=O)/C2=C1/NC(=S)NC1=O` is 14.3 µM; for `Cc1c(C(=O)O)cccc1-n1c(C)cc(CN=Nc2ccc([N+](=O)[O-])cn2)c1C` it is more than 300 µM; for `COc1ccc(OC)c(NC=C2C(=O)NC(=S)N(Cc3ccccc3)C2=O)c1` it is more than 300 µM. `C[C@H]1c2cccc(O)c2C(=O)C2C(=O)[C@]3(O)C(=O)C(C(N)=O)C(=O)[C@@H](N(C)C)[C@@H]3[C@@H](O)[C@@H]21` (some centres undefined) gave an EC50 of more than 300 µM.

As to `COc1cc(C2C3=C(CC(C)(C)CC3=O)OC(=N)C2C#N)cc2c1OCO2` (centres undefined), the half-maximal effective concentration (EC50) was more than 300 µM.

Regarding `O=C(NN=Cc1c(O)ccc2ccccc12)Nc1ccccc1`, it took 105 µM to reach a half-maximal effect (EC50). `N#CC1C(=N)OC2=C(C(=O)CCC2)C1c1ccc2c(c1)OCO2` (centres undefined) yielded an EC50 of more than 300 µM. Consider `Cc1ccc(Cl)c2c1=NC(=O)C=2NNc1ccccc1`, for which the EC50 was found to be 18.6 µM. In the case of `COc1cc(C2C3=C(CCCC3=O)OC(=N)C2C#N)cc2c1OCO2` (centres undefined), the EC50 is more than 300 µM.

In turn, `Cc1ccc2c(c1)=C(NNc1ccccc1C)C(=O)N=2` had an EC50 of more than 300 µM. The figure for `O=C1NC(=O)N(c2cccc(F)c2)C(=O)C1=Cc1c[nH]c2ccccc12` is more than 300 µM. The figure for `COc1ccccc1OCC(=O)NN=Cc1c(O)ccc2ccccc12` is 228 µM. The figure for `Oc1ccc(CN=Nc2ccc(Cl)nn2)c(O)c1O` is 50 µM; for `N#CCC(=N)C(C#N)C#N` [1,1,3-tricyano-2-amino-1-propene] it is 54.9 µM. For the compound `O=C(NN=CC1=CC(=O)C(=O)CC1)NN=CC1=CC(=O)C(=O)CC1` [1,3-bis[[(Z)-(3-hydroxy-4-oxocyclohexa-2,5-dien-1-ylidene)methyl]amino]urea], the EC50 came to 16.2 µM. The figure for `CCN(CC)CCN1C(=O)C(=O)C(C(=O)c2cc3cccc(OC)c3o2)C1c1ccc(F)cc1` (centres undefined) [1-(2-Diethylamino-ethyl)-5-(4-fluoro-phenyl)-3-hydroxy-4-(7-methoxy-benzofuran-2-carbonyl)-1,5-dihydr o-pyrrol-2-one] is more than 300 µM. As for `C=CCOc1cccc(C2C(C(=O)c3ccco3)C(=O)C(=O)N2Cc2ccco2)c1` (centres undefined) [1-(2-furanylmethyl)-3-[2-furanyl(oxo)methyl]-4-hydroxy-2-(3-prop-2-enoxyphenyl)-2H-pyrrol-5-one], the EC50 was more than 300 µM.

`O=C1Nc2ccccc2/C1=N/NC(=S)Nc1ccc(O)cc1` [1-(4-hydroxyphenyl)-3-[(2-oxidanylideneindol-3-yl)amino]thiourea] registered an EC50 of 16.3 µM. In other words, the double-digit micromolar range. `C=CCOc1ccc(C2C(C(=O)c3cccs3)C(=O)C(=O)N2c2nnc(C)s2)cc1` (centres undefined) [1-(5-methyl-1,3,4-thiadiazol-2-yl)-4-oxidanyl-2-(4-prop-2-enoxyphenyl)-3-thiophen-2-ylcarbonyl-2H-pyrrol-5-one] displayed an EC50 of 10.8 µM. The figure for `COc1ccc(NC=C2C(=O)NC(=S)N(Cc3ccccc3)C2=O)c(OC)c1` [1-Benzyl-5-[1-(2,4-dimethoxy-phenylamino)-meth-(Z)-ylidene]-2-thioxo-dihydro-pyrimidine-4,6-dione] is more than 300 µM. The figure for `CSc1nncc(C(C)N=Nc2ccccc2)n1` (centres undefined) [1-[3-(methylsulfanyl)-1,2,4-triazin-5-yl]ethanone phenylhydrazone] is 41.3 µM. As to `C=CCSc1nnc(N2C(=O)C(=O)C(C(=O)c3ccco3)C2c2ccccc2F)s1` (centres undefined) [1-[5-(allylthio)-1,3,4-thiadiazol-2-yl]-5-(2-fluorophenyl)-4-(2-furoyl)-3-hydroxy-3-pyrrolin-2-one], a half-maximal effect (EC50) was put at 48.3 µM. The figure for `C=CCSc1nnc(N2C(=O)C(=O)C(C(=O)c3ccco3)C2c2ccc(F)cc2)s1` (centres undefined) [1-[5-(allylthio)-1,3,4-thiadiazol-2-yl]-5-(4-fluorophenyl)-4-(2-furoyl)-3-hydroxy-3-pyrrolin-2-one] is 114 µM; for `CC(C)c1ccc(C2C(C#N)=C3Sc4ccccc4N3C(=N)C2C#N)cc1` (centres undefined) [1-amino-3-(4-propan-2-ylphenyl)-3H-pyrido[2,1-b][1,3]benzothiazole-2,4-dicarbonitrile] it is 33 µM; for `CC1(C)CC(=O)C2Sc3ccccc3N=C2C1` (centres undefined) [2,2-Dimethyl-2,3-dihydro-1H,10H-phenothiazin-4-one] it is 43.9 µM. The figure for `Oc1c(Br)cc(Br)c(C=Nn2c(-c3ccccc3)n[nH]c2=S)c1Br` [2,4,6-Tribromo-3-[(3-mercapto-5-phenyl-[1,2,4]triazol-4-ylimino)-methyl]-phenol] is 8.49 µM. The figure for `COc1cccc(C2C(C(=O)c3cc4cccc(OC)c4o3)C(=O)C(=O)N2c2cc(C)on2)c1OC` (centres undefined) [2-(2,3-dimethoxyphenyl)-3-[(7-methoxy-1-benzofuran-2-yl)carbonyl]-1-(5-methyl-1,2-oxazol-3-yl)-4-oxidanyl-2H-pyrrol-5-one] is more than 300 µM; for `COc1ccc(OC)c(C2C(C(=O)c3ccco3)C(=O)C(=O)N2CCN2CCOCC2)c1` (centres undefined) [2-(2,5-dimethoxyphenyl)-3-(furan-2-carbonyl)-4-hydroxy-1-(2-morpholin-4-ylethyl)-2H-pyrrol-5-one] it is more than 300 µM; for `COc1cccc(C2C3=C(CCCC3=O)OC(=N)C2C#N)c1OC(=O)c1ccco1` (centres undefined) [2-(2-amino-3-cyano-5-oxo-5,6,7,8-tetrahydro-4H-chromen-4-yl)-6-methoxyphenyl 2-furoate] it is more than 300 µM. In turn, `CC1(C)CC(=O)C2=C(C1)OC(=N)C(C#N)C2c1ccccc1OC(=O)N1CCOCC1` (centres undefined) [2-(2-amino-3-cyano-7,7-dimethyl-5-oxo-5,6,7,8-tetrahydro-4H-chromen-4-yl)phenyl morpholine-4-carboxylate] returned an EC50 of more than 300 µM.

`CCCSc1nnc(N2C(=O)C(=O)C(C(=O)c3ccco3)C2c2ccccc2F)s1` (centres undefined) [2-(2-fluorophenyl)-3-(furan-2-carbonyl)-4-hydroxy-1-(5-propylsulfanyl-1,3,4-thiadiazol-2-yl)-2H-pyrrol-5-one]: the EC50 is more than 300 µM.
